Assay results: patent publication US12629364B2, “Methods of treating cancers overexpressing CARM1 with EZH2 inhibitors and platinum-based antineoplastic drugs” (The Wistar Institute of Anatomy and Biology, priority 2016, dated 2026)

Tested on: A1847 parental and CARM1 knockout cells
Experiment: Epigenetic targeting small molecule set screen (14-day colony formation)
Type: cell-based, Human
Conditions: A1847 parental vs CARM1 knockout; 14 days; normalized to vehicle
Procedure: FIG. 26 illustrates that CARM1-expressing cells are selectively sensitized to EZH2 inhibitors. Equal number of parental control or CARM1 knockout […] cells were plated and treated with each of the 23 individual epigenetic inhibitors for 14 days. The media with the inhibitors was refreshed every 3 days. Cell growth was quantified as integrated density using NIH Image J software. Quantification of the average integrated density graphed as a scatter plot. The X-axis indicates the relative growth of treated CARM1 high parental […] cells compared with DMSO vehicle controls. Y-axis indicates the relative growth of treated CARM1 knockout […] cells compared with DMSO vehicle controls. n=4; and error bars represents SEM. FIG. 27 illustrates a table of EZH2 inhibitors that are selective against CARM1 expression. CARM1-high parental controls and CARM1 knockout […] cells were treated with the indicated concentration of the small molecules in a 14-day colony formation assay. Integrated density for each well was calculated using NIH Image J software. The relative growth of the indicated cells was determined by normalizing to the vehicle control treated cells. n=4 and p-value was calculated using a two-tailed t-test. FIG. 28 illustrates representative images of colonies formed by the cells treated with the indicated inhibitors. GSK126 and UNC1999 representative positive hits from the screen. […] parental and CARM1 knockout cells were plated in 24-well plates and treated with 24 epigenetic compounds. Cell medium was changed every three days with appropriate drug doses for 14 days or until control wells became confluent. Colonies were washed twice with PBS and fixed with 10% methanol and 10% acetic acid in distilled water. Fixed colonies were stained with 0.005% crystal violet. Integrated density was measured using NIH ImageJ software as a surrogate for cell growth.

Structure (SMILES): CC(=O)Nc1ccc(C(=O)Nc2ccccc2N)cc1 [CI994]
- selective growth suppression of CARM1-expressing versus CARM1 KO cells: equally effective in suppressing the growth of both CARM-expressing and KO cells

Structure (SMILES): CCCc1cc(C)[nH]c(=O)c1CNC(=O)c1cc(-c2ccc(N3CCN(C(C)C)CC3)nc2)cc2c1cnn2C(C)C [UNC1999, 1-isopropyl-6-(6-(4-isopropylpiperazin-1-yl)pyridin-3-yl)-N-((6-methyl-2-oxo-4-propyl-1,2-dihydropyridin-3-yl)methyl)-1H-indazole-4-carboxamide]
- selective growth suppression of CARM1-expressing versus CARM1 KO cells: showed selectivity against CARM1-expressing cells
